Article PMC11674187, “Inhibitory Effects of Cenobamate on Multiple Human Cardiac Ion Channels and Possible Arrhythmogenic Consequences” (Biomolecules, 2024)
“And” between values parts separate entries of the source, which are not always exact repeats. Equal values may be shown once.

How the values were obtained:
Ncyte® vCardiomyocytes = experiment: Amphotericin-perforated whole-cell recordings on hiPSC-CM (current clamp and voltage clamp); assay type: cell-based, human; details: cenobamate 200 µM
Protocol: Experiments were performed on HEK293T cell lines with persistent/inducible expression of different human cardiac ion channel isoforms: hNav1.5 and hKv7.1 + minK (Anaxon AG, Bern, Switzerland), hCav1.2 (α1c + β2 + α2δ1) (B’SYS GmbH, Witterswil, Switzerland), and hKv11.1 (hERG) (Cytocentrics Bioscience GmbH, Rostock, Germany). The cell lines were grown in standard conditions (37 °C, 5% CO2, 90% humidity) in DMEM:F12 medium (D8900, Sigma-Aldrich, Burlington, MA, USA) buffered with 15 mM HEPES, containing 3.15 g/L D-glucose and 0.055 g/L sodium pyruvate, supplemented with 1.2 g/L sodium bicarbonate, 10% fetal bovine serum (F2442, Sigma-Aldrich, Burlington, MA, USA), 2 mM L-glutamine (G7513, Sigma-Aldrich, Burlington, MA, USA), 1% penicillin–streptomycin (P4333, Sigma-Aldrich, Burlington, MA, USA), and with specific antibiotics for selection of transfected cells or induction of gene expression according to manufacturers’ instructions. The medium was changed every 2–3 days and the cells were passed weekly upon detachment with trypsin–EDTA solution. All cell culture media and solutions were sterile filtered with 0.22 μm polyvinylidene fluoride filters. Ncyte® vCardiomyocytes (Ncardia, Leiden, The Netherlands) were cultured in 24-well plates precoated with bovine fibronectin, following manufacturer’s instructions. For the experiments, cardiomyocytes were detached as described previously and plated on ϕ 10 mm glass coverslips, like the other cell lines.
Experiments on Ncyte® vCardiomyocytes were performed via an amphotericin-perforated whole-cell approach, filling the pipettes with solution containing amphotericin B 300 µg/mL except for a small region near the tip that contained amphotericin-free solution. The voltage-clamp and current-clamp protocols were similar to those used in our previous studies; the following protocols were recorded in sequence before and at 3 min after application of cenobamate in the bath to a final concentration of 200 µM: • - Nav standard protocol: holding −90 mV, depolarizing step at −10 mV lasting 40 ms; • - Cav-Nav separation protocol: holding −80 mV, first step at −20 mV 200 ms, intermediate step at −40 mV 100 ms, second step at −50 mV to +50 mV 200 ms, in 10 mV increments in consecutive sweeps; • - hERG standard protocol: holding −70 mV, a brief preliminary step at −50 mV 100 ms, first step at +40 mV 2000 ms, second step at −120 mV/−50 mV 2000 ms (in consecutive sweeps); • - A double voltage ramp protocol: holding −80 mV, first ramp from −120 mV to +80 mV in 2000 ms, second ramp from +80 mV back to −120 mV in 2000 ms, sweeps repeated at 10 s intervals; • - A current-clamp protocol with external pacing: 3 current stimuli of 2 nA amplitude, duration 0.5 ms (up to 2.5 ms in some experiments) applied at 3 s intervals, first stimulus at 500 ms after start of recording; in cells with spontaneous pace-making, this phenomenon was suppressed by applying a steady hyperpolarizing current of −10 pA or −20 pA. […]

[1] = cited from earlier work

Q: What does the source list for NC(=O)O[C@@H](Cn1ncnn1)c1ccccc1Cl [cenobamate]?
A: %ICaL peak change, mean (Table S8) (Ncyte® vCardiomyocytes; hiPSC-CM): 35.16%; %INa peak change, mean (Table S8) (Ncyte® vCardiomyocytes; hiPSC-CM): 27.43%; %If change, mean (Table S8) (Ncyte® vCardiomyocytes; hiPSC-CM): 19.89%; APD90 ceno, mean (Table S8) (Ncyte® vCardiomyocytes; initial mean 1212.99 ms): 619.83 ms; average APD90 shortening (%APD90 change) (Ncyte® vCardiomyocytes; mean (SD), n = 5): 28.55% and 28.6 ± 13.5%; protein binding ([1]; human, ref [5] p.10): 61.0%; average binding to plasma proteins ([1]; study YKP3089C018, ref [5] p. 13): ~ 60% and 60%
